The values that follow come from US20140336182A1, “Aurora Kinase Modulators and Method of Use” (Amgen Inc., priority 2013, published 2014).

The subject of one assay is HeLa cells. In words: HeLa cell 24 hr ploidy assay (DNA content). It counts as cell-based. Conditions: Homo sapiens, HeLa, 4N ploidy, average, read-out: 24h_4NPloidy EC50_IP (uM Avg). The protocol: HeLa cell 24 hr ploidy assay protocol
The purpose of this assay is to evaluate the ability of selected individual compounds to induce Deoxyribonucleic acid (DNA) content (ploidy) in cells through failed cell division. Cell cycle analysis is a rapid and efficient way to evaluate the status of DNA content (ploidy) of a given cell. HeLa cells (1×10^4 HeLa cells/well) in 100 ul of media (MEM+10% FBS) were plated in 96-well plates (Packard View) and cultured for 24 hrs at 37° C. maintained in a 5% CO2 atmosphere. […] The compounds were serially diluted in DMSO (0.25% final concentration). The cells were fixed (3.7% Formaldehyde and 1% glutaraldehyde) and permeabilized (1×PBS with 1% BSA and 0.2% Triton X-100) in preparation for nuclear staining. The well plates were stained for 45 minutes at RT in the dark using Hoechest 33342 nuclear stain at 0.5 ug.ml (Stock of 10 mg/ml, Invitrogen, CA, Cat #H3570). The nuclear stain was removed by aspiration and the cells were washed with wash buffer. A Cellomics Array Scan Vti plate reader was used to acquire the DNA ploidy data of the cells using Cell Cycle bioapplication. Numbers for each of “valid cell count/well”, “% of 4N cells” and “% of >4Ncells” were calculated with the assistance of an Activity Base 5.1ca software and dose curves were generated using an XLFit software. With XLFit, final EC50 IP and EC50 transit values, as well as the Max and Min, were calculated for each curve.
Turning to `COc1cnc2c(Oc3ccc(Nc4nnc(-c5cc(C)cs5)c5ccccc45)cc3)ccnc2c1` [compound 152], the EC50 was 0.009 µM.

In the case of `N#Cc1ccc2c(Oc3ccc(Nc4nnc(-c5ccccc5)c5ccccc45)cc3)ccnc2c1` [compound 105], the EC50 worked out at 0.036 µM.

On to `COc1cnc2c(Oc3ccc(Nc4nnc(-c5cccc(COC(C)=O)n5)c5ccccc45)cc3)ccnc2c1` [compound 132], for which the EC50 was found to be 0.323 µM.

Take `Cc1ccc(-c2nnc(Nc3ccc(Oc4ccnc5cc(C#N)ccc45)cc3)c3ccccc23)cc1` [compound 88]: the EC50 amounted to 0.006 µM.

Turning to `COc1cc2nccc(Oc3ccc(Nc4nnc(-c5ccccc5)c5ccccc45)cc3)c2cn1` [compound 96, N-(4-((7-(methyloxy)-1,6-naphthyridin-4-yl)oxy)phenyl)-4-phenyl-1-phthalazinamine], the EC50 is 0.063 µM.

Turning to `COc1cnc2c(Oc3ccc(Nc4nnc(N5CCCCC5)c5ccccc45)cc3)ccnc2c1` [compound 151], the EC50 is 0.128 µM.

As for `NC(=O)c1cc2nccc(Oc3ccc(Nc4nnc(-c5ccccc5)c5ccccc45)cc3F)c2s1` [compound 78], the EC50 was 0.031 µM.

With `COc1cccc(-c2nnc(Nc3ccc(Oc4ccnc5cc(C#N)ccc45)cc3)c3ccccc23)n1` [compound 102], the EC50 worked out at 0.028 µM.

Consider `COc1cnc2c(Oc3ccc(Nc4nnc(-c5nc(C)cs5)c5ccccc45)cc3)ccnc2c1` [compound 82, N-(4-((7-(methyloxy)-1,5-naphthyridin-4-yl)oxy)phenyl)-4-(4-methyl-1,3-thiazol-2-yl)-1-phthalazinamine], for which the EC50 worked out at 0.061 µM.

The same assay, now with this note: Homo sapiens, HeLa, HeLa cells, 4N ploidy, average, read-out: 24h_4NPloidy EC50_IP (uM Avg).
With `CC(C)n1ccc2nccc(Sc3ccc(Nc4nnc(-c5ccc(Cl)cc5)c5ccccc45)cc3)c21` [compound 471], the EC50 was 0.006 µM.

For `COc1cc(OC)c2c(Sc3ccc(Nc4nnc(-c5ccc(Cl)cc5)c5ccccc45)cc3)ccnc2c1` [compound 436], the EC50 is 0.049 µM.

In the case of `c1ccc(-c2nnc(Nc3ccc(Sc4ccnc5ccccc45)cc3)c3ccccc23)cc1` [compound 310], the EC50 worked out at 0.011 µM.

For the molecule `COCc1cc(-c2ccccc2)nnc1Nc1ccc(Oc2ccnc3cc(OC)cnc23)cc1` [compound 593], the EC50 was above 1.2 µM.

Regarding `COCCOc1ccc(-c2nnc(Nc3ccc(Sc4ccnc5cc(OC)cnc45)cc3)c3ccccc23)cc1` [compound 474], the EC50 was found to be 0.024 µM.

For `Fc1cc(F)c2c(Sc3ccc(Nc4nnc(-c5ccccc5)c5ccccc45)cc3)ccnc2c1` [compound 311], the EC50 stood at 0.055 µM.

Take `COc1cnc2c(Sc3ccc(Nc4nnc(N5CCC[C@@H](OC)C5)c5ccccc45)cc3)ccnc2c1` [compound 532]: the EC50 stood at 0.02 µM.

With `COc1ccc2c(Cc3ccc(Nc4nnc(-c5ccccc5)c5ccccc45)cc3)ccnc2c1` [compound 319], the EC50 is 0.028 µM.

Consider `COc1cnc2c(Oc3ccc(Nc4nnc(-c5ccc(N(C)C)cc5)c5ccccc45)cc3)ccnc2c1` [compound 194], for which the EC50 amounted to 0.033 µM.

`Clc1ccc(-c2nnc(Nc3ccc(Sc4ccnc5[nH]ccc45)cc3)c3ccccc23)cc1` [compound 330]: the EC50 is 0.016 µM.

Consider `Clc1ccc(-c2nnc(Nc3ccc(Oc4ccnc5cccnc45)cc3)c3ccccc23)cc1` [compound 448], for which the EC50 came out at 0.016 µM.

`CCc1cc(N2CCCCC2)nnc1Nc1ccc(Oc2ccnc3cc(OC)cnc23)cc1` [compound 321]: the EC50 was above 1.2 µM.

Regarding `COc1cnc2c(Oc3ccc(Nc4nnc(-c5ccc(Cl)cc5)c5ccccc45)cc3F)ccnc2c1` [compound 284], the EC50 is 0.011 µM.

For the molecule `COc1ccc2nccc(Oc3ccc(Nc4nnc(-c5ccccc5)c5ccccc45)cc3)c2c1` [compound 238], the EC50 was 0.053 µM.

With `Clc1ccc(-c2nnc(Nc3ccc(Sc4ccnc5ccoc45)cc3)c3ccccc23)nc1` [Example 391, 4-(5-Chloropyridin-2-yl)-N-(4-(furo[3,2-b]pyridin-7-ylthio)phenyl)phthalazin-1-amine], the EC50 amounted to 0.032 µM.

Take `Clc1ccc(-c2nnc(Nc3ccc(Oc4cnnc5ccc(Br)cc45)cc3)c3ccccc23)cc1` [compound 369]: the EC50 is above 1.2 µM.

Regarding `N#Cc1cc2nccc(Sc3ccc(Nc4nnc(-c5ccc(Cl)cc5)c5ccccc45)cc3)c2s1` [compound 351], the EC50 is 0.053 µM.

Take `COCCOc1ccc2nccc(Sc3ccc(Nc4nnc(-c5ccc(Cl)cc5)c5ccccc45)cc3)c2c1` [compound 434]: the EC50 stood at 0.027 µM.

As for `COc1ccc2nccc(Sc3ccc(Nc4nnc(-c5ccc(Cl)cc5)c5ccccc45)cc3)c2c1` [compound 315, 4-(4-chlorophenyl)-N-(4-(6-methoxyquinolin-4-ylthio)phenyl)phthalazin-1-amine], the EC50 is 0.014 µM.

In the case of `Cc1ccc(-c2nnc(Nc3ccc(Sc4ccnc5ccoc45)cc3)c3ccccc23)nc1` [compound 482], the EC50 came to 0.036 µM.

Take `COCCOc1cc(-c2nnc(Nc3ccc(Oc4ccnc5cc(OC)cnc45)cc3)c3ccccc23)ccc1C` [Example 395, N-(4-(7-Methoxy-1,5-naphthyridin-4-yloxy)phenyl)-4-(3-(2-methoxyethoxy)-4-methylphenyl)phthalazin-1-amine]: the EC50 stood at 0.023 µM.

For `COc1cnc2c(Oc3ccc(Nc4nnc(-c5cccc(N6CCCCC6)c5)c5ccccc45)cc3)ccnc2c1` [compound 197], the EC50 was 0.021 µM.

For `COc1cnc2c(Oc3ccc(Nc4nnc(-c5ccc6c(c5)OCO6)c5ccccc45)cc3)ccnc2c1` [compound 306, 4-(1,3-benzodioxol-5-yl)-N-(4-((7-(methyloxy)-1,5-naphthyridin-4-yl)oxy)phenyl)-1-phthalazinamine], the EC50 was determined as 0.006 µM.

As to `COc1cc2nccc(Sc3ccc(Nc4nnc(-c5cc(C)cs5)c5ccccc45)cc3)c2cn1` [compound 494], the EC50 was determined as 0.009 µM.

Regarding `COc1ccc2nccc(Oc3ccc(Nc4nnc(-c5ccccc5)c5ccccc45)cc3)c2n1` [compound 347], the EC50 worked out at 0.039 µM.

For the molecule `c1ccc(-c2nnc(Nc3ccc(Sc4ccnc5ccncc45)cc3)c3ccccc23)cc1` [compound 425], the EC50 is 0.024 µM.

Regarding `COc1cnc2c(Sc3ccc(Nc4nnc(C5CC5)c5ccccc45)cc3)ccnc2c1` [compound 541], the EC50 was found to be 0.038 µM.

Take `COc1cnc2c(Oc3ccc(Nc4nnc(-c5ccc6c(c5)OC(F)(F)O6)c5ccccc45)cc3)ccnc2c1` [compound 291]: the EC50 was found to be 0.045 µM.

For `COc1cnc2c(Sc3ccc(Nc4nnc(-c5ccccc5)c5ccccc45)cn3)ccnc2c1` [compound 413], the EC50 was 0.041 µM.

Regarding `N#Cc1cnc2c(Oc3ccc(Nc4nnc(-c5ccccc5)c5ccccc45)cc3)ccnc2c1` [Example 44, 8-(4-(4-phenylphthalazin-1-ylamino)phenoxy)-1,5-naphthyridine-3-carbonitrile], the EC50 was above 1.2 µM.

As for `Cc1ccc(-c2nnc(Nc3ccc(Oc4ccnc5ccoc45)cc3)c3ccccc23)cc1N` [compound 480], the EC50 turned out to be 0.112 µM.

Regarding `COc1cnc2c(Oc3ccc(Nc4nnc(-c5ccc6c(c5)OCCO6)c5ccccc45)cc3)ccnc2c1` [compound 166], the EC50 amounted to 0.087 µM.

For `O=C(c1cc2nccc(Sc3ccc(Nc4nnc(-c5ccc(Cl)cc5)c5ccccc45)cc3)c2s1)N1CCOCC1` [compound 314], the EC50 is 0.03 µM.

For the molecule `Clc1ccc(-c2nnc(Nc3ccc(Sc4ccnc5ccccc45)cc3)c3ccccc23)cc1` [compound 333], the EC50 was at least 1.2 µM.

For the molecule `Cc1csc(-c2nnc(Nc3ccc(Oc4ccnc5ccncc45)cc3)c3ccccc23)c1` [compound 429], the EC50 was found to be 0.034 µM.

With `Cc1ccc(-c2nnc(Nc3ccc(Oc4ccnc5cccnc45)cc3)c3ccccc23)cc1N` [compound 416], the EC50 was determined as 0.008 µM.

With `COc1ccc2ncnc(Oc3ccc(Nc4nnc(-c5ccc(Cl)cc5)c5ccccc45)cc3)c2c1` [compound 564], the EC50 is 0.043 µM.

Regarding `COc1cnc2c(Sc3ccc(Nc4nnc(C(C)C)c5ccccc45)cc3)ccnc2c1` [compound 558], the EC50 was determined as 0.1 µM.

On to `FC1(F)Oc2ccc(-c3nnc(Nc4ccc(Sc5ccnc6cccnc56)cc4)c4ccccc34)cc2O1` [compound 444], for which the EC50 came out at 0.024 µM.

Consider `CNC(=O)c1cc(Oc2ccc(Nc3nnc(-c4ccc(Cl)cc4)c4ccccc34)cc2)ccn1` [compound 361], for which the EC50 is 0.22 µM.

On to `Cc1ccc(-c2nnc(Nc3ccc(Oc4ccnc5cc(-c6cncn6C)sc45)cc3)c3ccccc23)nc1` [compound 255], for which the EC50 was 0.014 µM.

Consider `COc1cnc2c(Oc3ccc(Nc4nnc(-c5ccc(C#N)cc5)c5ccccc45)cc3)ccnc2c1` [compound 181], for which the EC50 was found to be 0.104 µM.

For `COc1cnc2c(Oc3ccc(Nc4nnc(-c5ccc(N6CCCCC6)cc5)c5ccccc45)cc3)ccnc2c1` [compound 198], the EC50 was 0.399 µM.

On to `COc1cnc2c(N(C)c3ccc(Nc4nnc(-c5cc(C)cs5)c5ccccc45)cc3)ccnc2c1` [compound 247], for which the EC50 came out at 0.112 µM.

Still in this assay, the particulars now being: Homo sapiens, HeLa, HeLa cells, average, read-out: 24h_4NPloidy EC50_IP (uM Avg).
Regarding `Clc1ccc(-c2nnc(Nc3ccc(Oc4ccnc5cc(OCc6ccccc6)cnc45)cc3)c3ccccc23)cc1` [compound 610], the EC50 came out at 0.014 µM.
